Experimental data taken from patent US8420592B2, “Methods of treatment using single doses of oritavancin” (The Medicines Company, priority 2008, dated 2013).
Read-outs that look alike come from different tables or passages of the source.

Assays:
[1] = clinical; format: in vivo, human
Description: A pharmacokinetic (PK) analysis was conducted of oritavancin from patients having complicated skin and skin structure infections (cSSSI) or bacteremia. The population for the analysis consisted of oritavancin-treated subjects and patients from 12 studies, consisting of nine Phase 1 studies, two Phase 2 studies, and one Phase 2/3 study. Oritavancin was administered as both single- and multiple-dose intravenous (IV) infusions in fixed doses ranging from 100 to 800 mg or weight-based doses ranging from 0.02 to 10 mg/kg.
Results: The final analysis population contained data from a total of 560 subjects: 200 from the Phase 1 studies, 86 from the Phase 2 bacteremia study, 29 from the Phase 2 cSSSI study, and 245 from the Phase 2/3 cSSSI study. The final pharmacokinetic analysis dataset contained a total of 6,336 oritavancin plasma concentrations, collected from these 560 subjects, of which 6,290 oritavancin concentrations were included in the results. The majority of subjects (>90%) contributed at least six samples to the population pharmacokinetic analysis.
A wide range of oritavancin doses was administered across the studies included in the population PK analysis, where 42% (236 of 560) of subjects received ≧400 mg, while 25% (142 of 560) received 800 mg or more. A histogram of the oritavancin doses administered is shown in FIG. 6, with midpoint values for each dose range shown over each bar. The duration over which oritavancin was infused ranged from 0.13 to 6.5 hr across all studies; however, oritavancin was administered over 1 hr for the majority of subjects. Histograms of the actual infusion durations and rates are shown in FIGS. 7 and 8, respectively, with midpoint values shown for each infusion duration or rate over each bar.
The final structural PK model for oritavancin in this analysis was a three-compartment model (one central, two peripheral) with a zero-order intravenous infusion rate and first-order, linear elimination. The model fit the data well (data not shown), regardless of the observed concentration or administered dose. If a nonlinear model had been necessary, there would have been significant bias in the weighted residuals at the lowest and/or highest concentrations and/or doses. No trends for decreasing CL with increasing dose were found.

[2] = system: MRSA; experiment: Phase 2 cSSSI study: cure rate by baseline pathogen; format: in vivo, Staphylococcus aureus; settings: MRSA at baseline, TOC
Description: (§1) The primary efficacy endpoint was the clinical response in the CE population at TOC, which occurred 20 to 28 days after study enrollment on Day 1. Clinical response was determined by the investigator as part of the end-of-therapy, TOC, and late follow-up procedures by assessing signs and symptoms including fever, pain, tenderness, erythema, induration, edema, purulent drainage, eschar, and devitalized tissue. A clinical response of cure, improvement, failure, or indeterminate was assigned at end-of-therapy and TOC by the investigator based on clinical signs and symptoms. At late follow-up, the investigator could assign the clinical response of relapse in addition to cure, improvement, or indeterminate. Only patients with a clinical response of cure or improvement at TOC were assessed for clinical response at late follow-up.
(§2) Cure was defined as resolution of purulent drainage, pain, edema, fever, erythema, tenderness, and induration. Serous drainage or aspirate and/or granulation tissue could be present. Improvement was defined as resolution of purulent drainage and, in the case of cellulitis, cessation of fever and pain. Residual erythema, edema, pain (in the case of wound or abscess), tenderness, and/or induration could be present as could serous drainage, granulation tissue, eschar, and/or devitalized tissue. Failure included any of the following: presence of purulent drainage (or aspirate) and/or fever; the unanticipated need for abscess drainage or removal of sutures (for treatment of infection)>48 hours after initiation of study therapy; or treatment with nonstudy systemic antibiotic having activity against gram-positive pathogen(s) for the primary infection site or use of topical antibiotics at the site of primary infection 24 hours or more after initiation of study medication therapy.
(§3) Blood and infection site cultures were obtained within three days of enrollment (often done at the time of enrollment). End-of-therapy, TOC, and late follow-up (or at early relapse) cultures were obtained from the infection site if clinically indicated. […] Specimens were cultured and pathogens were identified at each investigative site's certified laboratory. All isolated gram-positive pathogen(s) that were obtained from the infection site at baseline/randomization and up to and including the TOC time point were subcultured and sent to a central laboratory (Covance Clinical Laboratories, Indianapolis, Ind.) for confirmatory identification and susceptibility testing. In cases of discrepancy between the local and the central laboratory, central laboratory results were used.

[3] = system: MSSA; experiment: as above; format: in vivo, Staphylococcus aureus; settings: MSSA at baseline
Description: as §1, §2, §3

CN[C@H](CC(C)C)C(=O)N[C@H]1C(=O)N[C@@H](CC(N)=O)C(=O)N[C@H]2C(=O)N[C@H]3C(=O)N[C@H](C(=O)N[C@H](C(=O)O)c4cc(O)cc(O)c4-c4cc3ccc4O)[C@H](O[C@H]3C[C@](C)(N)[C@@H](O)[C@H](C)O3)c3ccc(c(Cl)c3)Oc3cc2cc(c3O[C@@H]2O[C@H](CO)[C@@H](O)[C@H](O)[C@H]2O[C@H]2C[C@](C)(NCc3ccc(-c4ccc(Cl)cc4)cc3)[C@@H](O)[C@H](C)O2)Oc2ccc(cc2Cl)[C@H]1O [Oritavancin, N-(4-(4-chlorophenyl)benzyl)A82846B]
Cmin, Mean ([1]; 180-330 mg/day (n = 140)): 2580 ng/mL
Cmin, Median ([1]; 180-330 mg/day (n = 140)): 2200 ng/mL
Cmin, Mean ([1]; <180 mg/day (n = 181)): 1170 ng/mL
Cmin, Median ([1]; <180 mg/day (n = 181)): 949 ng/mL
Cmin, Mean ([1]; >330 mg/day (n = 239)): 12500 ng/mL
Cmin, Median ([1]; >330 mg/day (n = 239)): 11000 ng/mL
Vc ([1]; healthy subjects, Multiple Dose (n = 109)): 5.10 L
Cmin ([1]; healthy subjects, Multiple Dose (n = 109), normalized to a dose of 200 mg, after a median of 4 (2-14) days): 11500 ng/mL
Vc ([1]; healthy subjects, Single Dose (n = 91)): 5.30 L
Cmin ([1]; healthy subjects, Single Dose (n = 91), normalized to a dose of 200 mg): 3300 ng/mL
Plasma half-life ([1]; human, in vivo): prolonged
AUC(0-t) ([1]; human, in vivo, 200 mg, healthy subjects, Multiple Dose (n = 109), normalized to a dose of 200 mg, after a median of 4 (2-14) days, read-out: AUC0-24): 459 µg·h/mL
Cmax ([1]; human, in vivo, 200 mg, healthy subjects, Multiple Dose (n = 109), normalized to a dose of 200 mg, after a median of 4 (2-14) days, read-out: Cmax): 46800 ng/mL
AUC(0-t) ([1]; human, in vivo, 200 mg, healthy subjects, Single Dose (n = 91), normalized to a dose of 200 mg, read-out: AUC0-24): 216 µg·h/mL
Cmax ([1]; human, in vivo, 200 mg, healthy subjects, Single Dose (n = 91), normalized to a dose of 200 mg, read-out: Cmax): 33900 ng/mL
AUC(0-t) ([1]; human, in vivo, 180-330 mg/day (n = 140), read-out: AUC0-24, Mean): 181 µg·h/mL
AUC(0-t) ([1]; human, in vivo, 180-330 mg/day (n = 140), read-out: AUC0-24, Median): 171 µg·h/mL
clearance ([1]; human, in vivo, 180-330 mg/day (n = 140), read-out: CL, Mean (converted)): 9.57 mL/min
clearance ([1]; human, in vivo, 180-330 mg/day (n = 140), read-out: CL, Median (converted)): 9.07 mL/min
Cmax ([1]; human, in vivo, 180-330 mg/day (n = 140), read-out: Cmax, Mean): 33400 ng/mL
Cmax ([1]; human, in vivo, 180-330 mg/day (n = 140), read-out: Cmax, Median): 30000 ng/mL
half-life ([1]; human, in vivo, 180-330 mg/day (n = 140), read-out: T1/2, α, Mean (converted)): 2.13 h
half-life ([1]; human, in vivo, 180-330 mg/day (n = 140), read-out: T1/2, α, Median (converted)): 2.13 h
half-life ([1]; human, in vivo, 180-330 mg/day (n = 140), read-out: T1/2, β, Mean (converted)): 29.7 h
half-life ([1]; human, in vivo, 180-330 mg/day (n = 140), read-out: T1/2, β, Median (converted)): 29.3 h
half-life ([1]; human, in vivo, 180-330 mg/day (n = 140), read-out: T1/2, γ, Mean (converted)): 376 h
half-life ([1]; human, in vivo, 180-330 mg/day (n = 140), read-out: T1/2, γ, Median (converted)): 373 h
AUC(0-t) ([1]; human, in vivo, <180 mg/day (n = 181), read-out: AUC0-24, Mean): 90 µg·h/mL
AUC(0-t) ([1]; human, in vivo, <180 mg/day (n = 181), read-out: AUC0-24, Median): 73.6 µg·h/mL
clearance ([1]; human, in vivo, <180 mg/day (n = 181), read-out: CL, Mean (converted)): 9.3 mL/min
clearance ([1]; human, in vivo, <180 mg/day (n = 181), read-out: CL, Median (converted)): 9.17 mL/min
Cmax ([1]; human, in vivo, <180 mg/day (n = 181), read-out: Cmax, Mean): 17800 ng/mL
Cmax ([1]; human, in vivo, <180 mg/day (n = 181), read-out: Cmax, Median): 14300 ng/mL
half-life ([1]; human, in vivo, <180 mg/day (n = 181), read-out: T1/2, α, Mean (converted)): 2.01 h
half-life ([1]; human, in vivo, <180 mg/day (n = 181), read-out: T1/2, α, Median (converted)): 1.97 h
half-life ([1]; human, in vivo, <180 mg/day (n = 181), read-out: T1/2, β, Mean (converted)): 27.4 h
half-life ([1]; human, in vivo, <180 mg/day (n = 181), read-out: T1/2, β, Median (converted)): 27.5 h
half-life ([1]; human, in vivo, <180 mg/day (n = 181), read-out: T1/2, γ, Mean (converted)): 376 h
half-life ([1]; human, in vivo, <180 mg/day (n = 181), read-out: T1/2, γ, Median (converted)): 387 h
AUC(0-t) ([1]; human, in vivo, >330 mg/day (n = 239), read-out: AUC0-24, Mean): 750 µg·h/mL
AUC(0-t) ([1]; human, in vivo, >330 mg/day (n = 239), read-out: AUC0-24, Median): 712 µg·h/mL
clearance ([1]; human, in vivo, >330 mg/day (n = 239), read-out: CL, Mean (converted)): 7.35 mL/min
clearance ([1]; human, in vivo, >330 mg/day (n = 239), read-out: CL, Median (converted)): 6.68 mL/min
Cmax ([1]; human, in vivo, >330 mg/day (n = 239), read-out: Cmax, Mean): 106000 ng/mL
Cmax ([1]; human, in vivo, >330 mg/day (n = 239), read-out: Cmax, Median): 105000 ng/mL
half-life ([1]; human, in vivo, >330 mg/day (n = 239), read-out: T1/2, α, Mean (converted)): 2.45 h
half-life ([1]; human, in vivo, >330 mg/day (n = 239), read-out: T1/2, α, Median (converted)): 2.35 h
half-life ([1]; human, in vivo, >330 mg/day (n = 239), read-out: T1/2, β, Mean (converted)): 31.4 h
half-life ([1]; human, in vivo, >330 mg/day (n = 239), read-out: T1/2, β, Median (converted)): 29.3 h
half-life ([1]; human, in vivo, >330 mg/day (n = 239), read-out: T1/2, γ, Mean (converted)): 353 h
half-life ([1]; human, in vivo, >330 mg/day (n = 239), read-out: T1/2, γ, Median (converted)): 347 h
clearance ([1]; human, in vivo, healthy subjects, Multiple Dose (n = 109), read-out: CL (converted)): 5.15 mL/min
half-life ([1]; human, in vivo, healthy subjects, Multiple Dose (n = 109), read-out: T1/2, α (converted)): 2.82 h
half-life ([1]; human, in vivo, healthy subjects, Multiple Dose (n = 109), read-out: T1/2, β (converted)): 33 h
half-life ([1]; human, in vivo, healthy subjects, Multiple Dose (n = 109), read-out: T1/2, γ (converted)): 320 h
clearance ([1]; human, in vivo, healthy subjects, Single Dose (n = 91), read-out: CL (converted)): 6.7 mL/min
half-life ([1]; human, in vivo, healthy subjects, Single Dose (n = 91), read-out: T1/2, α (converted)): 2.25 h
half-life ([1]; human, in vivo, healthy subjects, Single Dose (n = 91), read-out: T1/2, β (converted)): 19.8 h
half-life ([1]; human, in vivo, healthy subjects, Single Dose (n = 91), read-out: T1/2, γ (converted)): 316 h
% of patients cured (cure and improvement) ([2]; 200 mg daily dose): 78.3%
% of patients cured (cure and improvement) ([2]; 800 mg infrequent dose): 87.0%
% of patients cured (cure and improvement) ([2]; 1200 mg single dose): 73.0%
% of patients cured (cure and improvement) ([3]; 200 mg daily dose): 56.5%
% of patients cured (cure and improvement) ([3]; 800 mg infrequent dose): 68.8%
% of patients cured (cure and improvement) ([3]; 1200 mg single dose): 90.9%
